{
  "source": "PubChem BioAssay (NCI)",
  "assay_in_all_cases": "NCI-60 cell line screen, 384-well format",
  "key": {"NCI-H23 lung": {"system": "NCI-H23 lung"}, "KM12 colon": {"system": "KM12 colon"}, "TK-10 renal": {"system": "TK-10 renal"}, "M14 melanoma": {"system": "M14 melanoma"}, "SK-MEL-28 melanoma": {"system": "SK-MEL-28 melanoma"}, "MDA-MB-468 breast": {"system": "MDA-MB-468 breast"}, "UO-31 renal": {"system": "UO-31 renal"}, "SK-MEL-2 melanoma": {"system": "SK-MEL-2 melanoma"}, "HOP-62 NSCLC": {"system": "HOP-62 NSCLC"}, "OVCAR-4 ovarian": {"system": "OVCAR-4 ovarian"}, "DU-145 prostate": {"system": "DU-145 prostate"}, "NCI-H322M lung": {"system": "NCI-H322M lung"}, "NCI-H460 NSCLC": {"system": "NCI-H460 NSCLC"}, "MALME-3M melanoma": {"system": "MALME-3M melanoma"}, "HS 578T breast": {"system": "HS 578T breast"}, "786-0 renal": {"system": "786-0 renal"}, "SF-539 CNS": {"system": "SF-539 CNS"}, "SF-268 CNS": {"system": "SF-268 CNS"}, "ACHN renal": {"system": "ACHN renal"}, "K-562 leukemia": {"system": "K-562 leukemia"}, "SR leukemia": {"system": "SR leukemia"}, "IGROV1 ovarian": {"system": "IGROV1 ovarian"}, "HOP-92 NSCLC": {"system": "HOP-92 NSCLC"}, "A549 NSCLC": {"system": "A549 NSCLC"}, "SF-295 CNS": {"system": "SF-295 CNS"}, "A498 renal": {"system": "A498 renal"}, "T-47D breast": {"system": "T-47D breast"}, "HCC-2998 colon": {"system": "HCC-2998 colon"}, "BT-549 breast": {"system": "BT-549 breast"}, "OVCAR-3 ovarian": {"system": "OVCAR-3 ovarian"}},
  "note": "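Here, GI50 denotes the concentration required for 50% inhibition of growth. TGI marks complete inhibition of growth.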",
  "data": [
    {"smiles": "Cn1ncc2cc(-c3cnc(N)c(Cl)c3N3CCC4(CCNC4=O)CC3)ccc21", "values": [
      {"measurement": "GI50", "setting": "NCI-H23 lung", "result": 34.2, "unit": "µM"},
      {"measurement": "TGI", "setting": "NCI-H23 lung", "result": "> 80.3", "unit": "µM"},
      {"measurement": "GI50", "setting": "KM12 colon", "result": 32.4, "unit": "µM"},
      {"measurement": "TGI", "setting": "KM12 colon", "result": "> 100", "unit": "µM"},
      {"measurement": "GI50", "setting": "TK-10 renal", "result": 38.2, "unit": "µM"},
      {"measurement": "TGI", "setting": "TK-10 renal", "result": "> 100", "unit": "µM"},
      {"measurement": "GI50", "setting": "M14 melanoma", "result": "> 78.2", "unit": "µM"},
      {"measurement": "TGI", "setting": "M14 melanoma", "result": "> 100", "unit": "µM"},
      {"measurement": "GI50", "setting": "SK-MEL-28 melanoma", "result": 39.6, "unit": "µM"},
      {"measurement": "TGI", "setting": "SK-MEL-28 melanoma", "result": "> 100", "unit": "µM"},
      {"measurement": "GI50", "setting": "MDA-MB-468 breast", "result": 9.27, "unit": "µM"},
      {"measurement": "TGI", "setting": "MDA-MB-468 breast", "result": 25.5, "unit": "µM"},
      {"measurement": "GI50", "setting": "UO-31 renal", "result": 32.3, "unit": "µM"},
      {"measurement": "TGI", "setting": "UO-31 renal", "result": "> 100", "unit": "µM"},
      {"measurement": "GI50", "setting": "SK-MEL-2 melanoma", "result": 17.6, "unit": "µM"},
      {"measurement": "TGI", "setting": "SK-MEL-2 melanoma", "result": 47.1, "unit": "µM"},
      {"measurement": "GI50", "setting": "HOP-62 NSCLC", "result": 29.2, "unit": "µM"},
      {"measurement": "TGI", "setting": "HOP-62 NSCLC", "result": "> 90.6", "unit": "µM"},
      {"measurement": "GI50", "setting": "OVCAR-4 ovarian", "result": 97.1, "unit": "µM"},
      {"measurement": "TGI", "setting": "OVCAR-4 ovarian", "result": "> 100", "unit": "µM"},
      {"measurement": "GI50", "setting": "DU-145 prostate", "result": 33.9, "unit": "µM"},
      {"measurement": "TGI", "setting": "DU-145 prostate", "result": "> 100", "unit": "µM"},
      {"measurement": "GI50", "setting": "NCI-H322M lung", "result": 47.6, "unit": "µM"},
      {"measurement": "TGI", "setting": "NCI-H322M lung", "result": "> 100", "unit": "µM"},
      {"measurement": "GI50", "setting": "NCI-H460 NSCLC", "result": 35.9, "unit": "µM"},
      {"measurement": "TGI", "setting": "NCI-H460 NSCLC", "result": "> 100", "unit": "µM"},
      {"measurement": "GI50", "setting": "MALME-3M melanoma", "result": 40.9, "unit": "µM"},
      {"measurement": "TGI", "setting": "MALME-3M melanoma", "result": "> 85", "unit": "µM"},
      {"measurement": "GI50", "setting": "HS 578T breast", "result": 24.1, "unit": "µM"},
      {"measurement": "TGI", "setting": "HS 578T breast", "result": 46.9, "unit": "µM"},
      {"measurement": "GI50", "setting": "786-0 renal", "result": 10.7, "unit": "µM"},
      {"measurement": "TGI", "setting": "786-0 renal", "result": 25.4, "unit": "µM"},
      {"measurement": "GI50", "setting": "SF-539 CNS", "result": 48.6, "unit": "µM"},
      {"measurement": "TGI", "setting": "SF-539 CNS", "result": "> 100", "unit": "µM"},
      {"measurement": "GI50", "setting": "SF-268 CNS", "result": 41.9, "unit": "µM"},
      {"measurement": "TGI", "setting": "SF-268 CNS", "result": "> 100", "unit": "µM"},
      {"measurement": "GI50", "setting": "ACHN renal", "result": 14.1, "unit": "µM"},
      {"measurement": "TGI", "setting": "ACHN renal", "result": "> 100", "unit": "µM"},
      {"measurement": "GI50", "setting": "K-562 leukemia", "result": 36.1, "unit": "µM"},
      {"measurement": "TGI", "setting": "K-562 leukemia", "result": "> 100", "unit": "µM"},
      {"measurement": "GI50", "setting": "SR leukemia", "result": 8.79, "unit": "µM"},
      {"measurement": "TGI", "setting": "SR leukemia", "result": 21.7, "unit": "µM"},
      {"measurement": "GI50", "setting": "IGROV1 ovarian", "result": 19.6, "unit": "µM"},
      {"measurement": "TGI", "setting": "IGROV1 ovarian", "result": "> 87", "unit": "µM"},
      {"measurement": "GI50", "setting": "HOP-92 NSCLC", "result": 41.4, "unit": "µM"},
      {"measurement": "TGI", "setting": "HOP-92 NSCLC", "result": "> 87.8", "unit": "µM"},
      {"measurement": "GI50", "setting": "A549 NSCLC", "result": 47.6, "unit": "µM"},
      {"measurement": "TGI", "setting": "A549 NSCLC", "result": "> 100", "unit": "µM"},
      {"measurement": "GI50", "setting": "SF-295 CNS", "result": 46.1, "unit": "µM"},
      {"measurement": "TGI", "setting": "SF-295 CNS", "result": "> 100", "unit": "µM"},
      {"measurement": "GI50", "setting": "A498 renal", "result": 10.2, "unit": "µM"},
      {"measurement": "TGI", "setting": "A498 renal", "result": "> 100", "unit": "µM"},
      {"measurement": "GI50", "setting": "T-47D breast", "result": 21.5, "unit": "µM"},
      {"measurement": "TGI", "setting": "T-47D breast", "result": "> 96.1", "unit": "µM"},
      {"measurement": "GI50", "setting": "HCC-2998 colon", "result": 43.1, "unit": "µM"},
      {"measurement": "TGI", "setting": "HCC-2998 colon", "result": "> 100", "unit": "µM"},
      {"measurement": "GI50", "setting": "BT-549 breast", "result": 38.1, "unit": "µM"},
      {"measurement": "TGI", "setting": "BT-549 breast", "result": "> 100", "unit": "µM"},
      {"measurement": "GI50", "setting": "OVCAR-3 ovarian", "result": 23.5, "unit": "µM"},
      {"measurement": "TGI", "setting": "OVCAR-3 ovarian", "result": "> 100", "unit": "µM"}
    ]}
  ]
}
